This note sets out measurements from paper PMC10706071, “Simultaneous Improvement in the Thermostability and Catalytic Activity of Epoxidase Lsd18 for the Synthesis of Lasalocid A” (International Journal of Molecular Sciences, 2023).

Common to all, as to format: binding
Assay [1] concerns the target T1, Lsd18 (Streptomyces lasalocidi, UniProt B5M9L6, T173M/S179M).
T1 construct: full-length gene in pCold (NdeI/EcoRI), E. coli BL21(DE3) with chaperone plasmid pG-KJE8, Ni beads and gel filtration; reductively ethylated for crystals only
In words: X-ray crystal structure ([…] Å); FAD content by absorbance at […] nm. As to conditions: co-purified FAD; reductively ethylated protein for crystals.

The target of assay [2] is T2, Lsd18 (Streptomyces lasalocidi, UniProt B5M9L6, T173M).
T2 construct: full-length gene in pCold (NdeI/EcoRI), E. coli BL21(DE3) with chaperone plasmid pG-KJE8, Ni beads and gel filtration; reductively ethylated for crystals only
T2 sequence (B5M9L6 whole entry T173M): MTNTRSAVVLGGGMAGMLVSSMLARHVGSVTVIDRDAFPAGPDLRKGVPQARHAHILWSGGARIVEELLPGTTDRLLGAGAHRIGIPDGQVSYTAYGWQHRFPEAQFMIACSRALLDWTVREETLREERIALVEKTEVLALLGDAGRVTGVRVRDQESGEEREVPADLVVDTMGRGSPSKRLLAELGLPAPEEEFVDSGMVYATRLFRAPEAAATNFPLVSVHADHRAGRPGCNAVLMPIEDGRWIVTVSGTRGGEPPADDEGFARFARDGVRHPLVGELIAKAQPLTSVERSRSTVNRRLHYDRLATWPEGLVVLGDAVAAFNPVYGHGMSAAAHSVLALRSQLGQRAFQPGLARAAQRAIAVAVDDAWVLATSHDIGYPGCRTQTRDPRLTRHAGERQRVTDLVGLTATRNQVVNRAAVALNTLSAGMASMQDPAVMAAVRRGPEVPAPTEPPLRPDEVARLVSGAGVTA
Description: bound FAD released by heating, absorbance at […] nm. Particulars: co-purified FAD; 20 mM Tris pH 8.5, 150 mM NaCl.

Assay [3] has as its target T3, Lsd18 (Streptomyces lasalocidi, UniProt B5M9L6).
T3 construct: full-length gene in pCold (NdeI/EcoRI), E. coli BL21(DE3) with chaperone plasmid pG-KJE8, Ni beads and gel filtration; reductively ethylated for crystals only
T3 sequence (B5M9L6 1-472): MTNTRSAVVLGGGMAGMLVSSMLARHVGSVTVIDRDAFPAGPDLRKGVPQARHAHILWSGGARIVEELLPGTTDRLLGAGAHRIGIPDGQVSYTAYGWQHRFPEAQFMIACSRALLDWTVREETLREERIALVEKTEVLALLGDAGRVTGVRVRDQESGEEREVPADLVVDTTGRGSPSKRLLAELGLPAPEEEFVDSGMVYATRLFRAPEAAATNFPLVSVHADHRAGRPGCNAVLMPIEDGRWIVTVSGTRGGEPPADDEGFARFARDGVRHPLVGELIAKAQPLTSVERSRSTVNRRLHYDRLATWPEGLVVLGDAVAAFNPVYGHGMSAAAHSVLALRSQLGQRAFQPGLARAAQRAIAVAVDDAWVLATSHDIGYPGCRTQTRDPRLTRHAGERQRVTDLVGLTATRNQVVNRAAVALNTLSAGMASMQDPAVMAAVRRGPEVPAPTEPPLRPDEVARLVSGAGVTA
Description: bound FAD released by heating ([…] °C, […] min), absorbance at […] nm. As to conditions: co-purified FAD; 20 mM Tris pH 8.5, 150 mM NaCl.

Assay [4] deals with T4, Lsd18 (Streptomyces lasalocidi, UniProt B5M9L6, S179M).
T4 construct: full-length gene in pCold (NdeI/EcoRI), E. coli BL21(DE3) with chaperone plasmid pG-KJE8, Ni beads and gel filtration; reductively ethylated for crystals only
T4 sequence (B5M9L6 whole entry S179M): as the sequence (B5M9L6 whole entry T173M) above, with M173T, S179M counted along it
Description: bound FAD released by heating, absorbance at […] nm. Particulars: co-purified FAD; 20 mM Tris pH 8.5, 150 mM NaCl.

T1 sequence (B5M9L6 whole entry T173M/S179M): as the sequence (B5M9L6 whole entry T173M) above, with S179M counted along it

In the case of `Cc1cc2nc3c(=O)[nH]c(=O)nc-3n(C[C@H](O)[C@H](O)[C@H](O)COP(=O)(O)OP(=O)(O)OC[C@H]3O[C@@H](n4cnc5c(N)ncnc54)[C@H](O)[C@@H]3O)c2cc1C` [FAD], the “X-ray crystal structure (3.76 Å); FAD content by absorbance at 451 nm” value on Lsd18 [1] is listed as “M189 forms a hydrogen bond with the cofactor FAD that could stabilize the binding”. Moreover, the FAD content entry was “the FAD content in the mutants Lsd18-T189M, Lsd18-S195M, Lsd18-T189M-S195M increased” at Lsd18 [2]; “the yellower the color of Lsd18 (attributed to bound FAD), the more stable it was” on Lsd18 [3]; “the FAD content in the mutants Lsd18-T189M, Lsd18-S195M, Lsd18-T189M-S195M increased” at Lsd18 [4].
